Where two headings read alike, the source gives them in different places.
Key:
Assay type in all cases: cell-based
[1] = tested on: RKO cells, encorafenib/cetuximab resistant strain; assay: Viability of encorafenib/cetuximab resistant strain with encorafenib and ATRA; settings: for IC50: Homo sapiens, RKO, Resistant Strain, read-out: IC50 (50% inhibition concentration)
Experimental: Encorafenib/cetuximab resistant strains were constructed, and the inhibitor enhancing effect of ATRA was examined for the resistant strains.
For the construction of the resistant strains, the above-described RKO cells were seeded in 15 mm dishes and a group in which the BRAF inhibitor Encorafenib and an anti-EGFR antibody Cetuximab were administered and a group in which the BRAF inhibitor Encorafenib, the MEK inhibitor Binimetinib, and the anti-EGFR antibody Cetuximab were administered were prepared.
The vertical axis represents the viability (ratio), and the horizontal axis represents the administration amount of encorafenib.

[2] = tested on: RKO cells, sensitive strain; assay: Viability of sensitive strain with encorafenib and ATRA; settings: for IC50: Homo sapiens, RKO, Sensitive Strain, read-out: IC50 (50% inhibition concentration)
[3] = tested on: WiDR (BRAF V600E-mutated colorectal cancer cell line); assay: MTT assay, encorafenib + binimetinib with retinoid; settings: Test Example 6; concentration-dependent
Experimental: (§1) RKO cells were seeded on a 96-well plate with the number of cells of 1.5×10^3 cells/well, CO115 cells were seeded on a 96-well plate with the number of cells of 2.5×10^3 cells/well, and HT29 cells and WiDR cells were respectively seeded on 96-well plates with the number of cells of 6×10^3 cells/well. After incubation for about 24 hours until the cell density reached 40% to 60%, the drug was administered. After incubation at 37° C. for 72 hours, the MTT assay was performed using Cell Counting Kit-8 (Dojindo Laboratories, Kumamoto, Japan). To each well was added 10 μl of Cell Counting Kit-8 solution, the plates were placed in a culture vessel at 5% CO2 and 37° C. for 120 minutes to perform a color reaction, and then the absorbance at 450 nm was measured and evaluated with a microplate reader SpectraMax M2e (Molecular Devices, Sunnyvale, CA, USA). Cells administered with 0.1% DMSO were used as a control. The above was performed three or more times as independent experiments.
(§2) In various kinds of colorectal cancer cell lines, the inhibition effect of a BRAF inhibitor (encorafenib) and an MEK inhibitor (binimetinib) for the viability of cells and the enhancement by ATRA were examined. […] The horizontal axis indicates component concentrations of encorafenib and binimetinib in a range of 0 μM to 10 μM, and the vertical axis indicates the cell viability when 0 μM, 1.0 μM, or 10 μM (each bar graph) of ATRA was administered. As shown in the drawing, encorafenib and binimetinib were used in an equal molar concentration.
(§3) As the compounds for acting on a retinoid receptor, retinol, tamibarotene, and bexarotene among the retinoids were used. As the cell lines, the colorectal cancer cell lines including RKO, HT29, CO115, WiDR, COLO205, and LIM2405 described above were used. As the BRAF inhibitor and the MEK inhibitor to be used in combination, a component (EB) obtained by mixing encorafenib and binimetinib in equal amounts was used as in Test Example 2.

[4] = tested on: HT29 (BRAF V600E-mutated colorectal cancer cell line); assay: MTT assay, encorafenib + binimetinib with retinoid
Experimental: as §1, §2
as §3, with “acting and” for “acting”, “tamibarotene,” for “tamibarotene, and”, “above-described” for “colorectal cancer”, “HT29,” for “HT29, CO115, WiDR, COLO205,”, “CO115” for “LIM2405 described above”
as §3

[5] = tested on: RKO (BRAF V600E-mutated colorectal cancer cell line); assay: MTT assay, encorafenib + binimetinib with retinoid
Experimental: as §1, §2
as §3, with “acting and” for “acting”, “tamibarotene,” for “tamibarotene, and”, “above-described” for “colorectal cancer”, “HT29,” for “HT29, CO115, WiDR, COLO205,”, “CO115” for “LIM2405 described above”
as §3

[6] = tested on: CO115 (BRAF V600E-mutated colorectal cancer cell line); assay: MTT assay, encorafenib + binimetinib with retinoid
Experimental: as §1, §2
as §3, with “acting and” for “acting”, “tamibarotene,” for “tamibarotene, and”, “above-described” for “colorectal cancer”, “HT29,” for “HT29, CO115, WiDR, COLO205,”, “CO115” for “LIM2405 described above”
as §3

COLO205 cell line = assay: MTT assay, encorafenib + binimetinib with retinoid; settings: Test Example 6; concentration-dependent
Experimental: as §1, §3

LIM2405 cell line = assay: MTT assay, encorafenib + binimetinib with retinoid; settings: Test Example 6; concentration-dependent
Experimental: as §1, §3

[7] = Test Example 3, EB 0.01 μM, retinol, tamibarotene or bexarotene 1 μM
[8] = Test Example 6, concentration-dependent, smaller concentrations than Test Example 3
[9] = Test Example 3, EB 0.1 μM, retinol 30 μM, tamibarotene 10 μM or bexarotene 10 μM
[10] = Test Example 3, EB 0.1 μM, retinol 30 μM or tamibarotene 30 μM

COC(=O)N[C@@H](C)CNc1nccc(-c2cn(C(C)C)nc2-c2cc(Cl)cc(NS(C)(=O)=O)c2F)n1 [encorafenib]
IC50 ([1]; ATRA 0 μM): > 10000 nM
IC50 ([1]; ATRA 1 μM): 1580 nM
viability (ratio) ([1]; resistant strain (R), ATRA 1 μM): around 0.3
IC50 ([2]; ATRA 0 μM): 1230 nM
IC50 ([2]; ATRA 1 μM): 4.6 nM
viability (ratio) ([2]; sensitive strain (S), ATRA 1 μM, encorafenib 0 to 10 μM): around 0.1
viability (ratio) ([2]; sensitive strain, ATRA not administered): around 0.3

CC1(C)CCC(C)(C)c2cc(NC(=O)c3ccc(C(=O)O)cc3)ccc21 [tamibarotene]
cell viability on further adding a retinoid to EB [3]: greatly decreased
cell viability on further adding a retinoid to EB [4, 7]: greatly reduced
cell viability on further adding a retinoid to EB [4, 8]: greatly decreased
cell viability on further adding a retinoid to EB [5, 9]: greatly reduced
cell viability on further adding a retinoid to EB [5, 8]: greatly decreased
cell viability on further adding a retinoid to EB [6, 10]: greatly reduced
cell viability on further adding a retinoid to EB [6, 8]: greatly decreased
cell viability on further adding a retinoid to EB (COLO205 cell line): greatly decreased
cell viability on further adding a retinoid to EB (LIM2405 cell line): greatly decreased

C=C(c1ccc(C(=O)O)cc1)c1cc2c(cc1C)C(C)(C)CCC2(C)C [bexarotene]
cell viability on further adding a retinoid to EB [3]: greatly decreased
cell viability on further adding a retinoid to EB [4, 7]: greatly reduced
cell viability on further adding a retinoid to EB [4, 8]: greatly decreased
cell viability on further adding a retinoid to EB [5, 9]: greatly reduced
cell viability on further adding a retinoid to EB [5, 8]: greatly decreased
cell viability on further adding a retinoid to EB [6, 8]: greatly decreased
cell viability on further adding a retinoid to EB (COLO205 cell line): greatly decreased
cell viability on further adding a retinoid to EB (LIM2405 cell line): greatly decreased

CC1=C(/C=C/C(C)=C/C=C/C(C)=C/CO)C(C)(C)CCC1 [retinol]
cell viability on further adding a retinoid to EB [3]: greatly decreased
cell viability on further adding a retinoid to EB [4, 7]: greatly reduced
cell viability on further adding a retinoid to EB [4, 8]: greatly decreased
cell viability on further adding a retinoid to EB [5, 9]: greatly reduced
cell viability on further adding a retinoid to EB [5, 8]: greatly decreased
cell viability on further adding a retinoid to EB [6, 10]: greatly reduced
cell viability on further adding a retinoid to EB [6, 8]: greatly decreased
cell viability on further adding a retinoid to EB (COLO205 cell line): greatly decreased
cell viability on further adding a retinoid to EB (LIM2405 cell line): greatly decreased
